From US8853424B2 (Japan Science and Technology Agency, priority 2008, dated 2014)

Columns and labels:
transglutaminase (TGase) = assay: Measurement of TG (TGase inhibitory activity, monodansyl cadaverine / N,N-dimethylcasein fluorescence, FDSS 3000); format: biochemical
In short: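 Compound (1 μL of 10 mM stock) added to 0.1 mL reaction: 100 mM HEPES-NaOH pH 7.5, 1 mM CaCl2, 20 μM monodansyl cadaverine, 0.05 mg/mL N,N-dimethylcasein, 5 μg/mL TGase. Rate of fluorescence change at 340 nm measured; DMSO control set to 100; TG50 is the concentration halving activity.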

[1] = test system: Truncated N-terminal huntington 150 Q-EGFP-Neuron 2a cells; assay: Measurement of x-Fold (polyglutamine aggregation inhibitory activity); format: cell-based
Experimental: In the present invention, the polyglutamine aggregation inhibitory activity (x-Fold) can be measured, for example, by the method described in the Example.
The number of the aggregated cells, and the total number of cells were counted by Array Scan V T1 (manufactured by Cellomics, Pittuburg, USA), and the ratio of the aggregated cells to the total number of cells was determined (x-Fold). […]

[2] = TGase activity with compound (10 mM, 1 μL in 0.1 ml enzyme reaction solution), DMSO control taken as 100
[3] = TGase inhibitory activity value, Table 1
[4] = polyglutamine aggregation inhibitory activity, Table 1
[5] = ratio of aggregated cells to total number of cells, compound 20 μM, 20 hr, almost 1 without compound, smaller = stronger inhibition

Compound | TGase activity remaining (% of DMSO control = 100) (transglutaminase (TGase); [2]) | TGase activity remaining (% of DMSO control = 100) (transglutaminase (TGase); [3]) | x-Fold [1, 4] | x-Fold [1, 5] | other results
CCC(N)COB(c1ccccc1)c1ccccc1 (stereo not shown) [Example 228, diphenyl 2-aminobutylborinate] | 99 | 99 | 0.98 | 0.98 | –
OB(c1ccc(Cl)c(F)c1)c1ccc(Cl)c(F)c1 [Example 231, di(3-fluoro-4-chlorophenyl)borinic acid] | 94 | – | – | 1.01 | TGase activity remaining (% of DMSO control = 100) (transglutaminase (TGase); TGase inhibitory activity value, Table 1, listed as 4140): 94; x-Fold ([1]; polyglutamine aggregation inhibitory activity, Table 1, listed as 4140): 1.01
CN(C)CCOB(c1ccc(C(F)(F)F)cc1)c1ccc(C(F)(F)F)cc1 [Example 233] | 112 | – | – | 1.12 | TGase activity remaining (% of DMSO control = 100) (transglutaminase (TGase); TGase inhibitory activity value, Table 1, listed as 4142): 112; x-Fold ([1]; polyglutamine aggregation inhibitory activity, Table 1, listed as 4142): 1.12
NCC(CN)OB(c1ccc(Cl)c(F)c1)c1ccc(Cl)c(F)c1 [Example 235] | 80 | 80 | 1.03 | 1.03 | –
CC(C)(N)COB(c1ccc(Cl)c(F)c1)c1ccc(Cl)c(F)c1 [Example 236, di(4-chloro-3-fluorophenyl) 2-amino-2-methyl-propyl-borinate] | 87 | 87 | 1.10 | 1.10 | –
Fc1cc(B(OCCNc2ccccc2)c2ccc(Cl)c(F)c2)ccc1Cl [Example 237, di(4-chloro-3-fluorophenyl) 2-phenylaminoethyl borinate] | 88 | 88 | 1.15 | 1.15 | –
CC(O)C(N)COB(c1ccc(Cl)c(F)c1)c1ccc(Cl)c(F)c1 (stereo not shown) [Example 238, di(4-chloro-3-fluorophenyl) 2-amino-3-hydroxybutyl borinate] | 87 | 87 | 1.07 | 1.07 | –
c1ccc(B(OCCN2CCN(CCOB(c3ccccc3)c3ccccc3)CC2)c2ccccc2)cc1 [Example 239, bis(diphenyl piperazino-O,O-ethoxyborane)] | 126 | – | – | 0.94 | –
OB(c1cccc(Cl)c1)c1cccc(Cl)c1 [Example 241, di(3-chlorophenyl)borinic acid] | 67 | – | – | 1.10 | –
Cc1ccc(Cl)cc1B(OCC1CCCCN1)c1cc(Cl)ccc1C (stereo not shown) [Example 242, di(5-chloro-2-methylphenyl) 2-piperidinomethylborinate] | 98 | – | – | 1.17 | –
NCCCC(N)C(=O)OB(c1ccccc1)c1ccccc1 (stereo not shown) [Example 245, diphenyl(ornithine-O,N)borane] | 94 | – | – | 0.91 | TGase activity remaining (% of DMSO control = 100) (transglutaminase (TGase); TGase inhibitory activity value, Table 1, listed as 921): 94; x-Fold ([1]; polyglutamine aggregation inhibitory activity, Table 1, listed as 921): 0.91
CCCCNCCOB(c1cc(Cl)ccc1C)c1cc(Cl)ccc1C [Example 246, di(5-chloro-2-methylphenyl) 2-butylaminoethylborinate] | 94 | – | – | 0.67 | –
Cc1ccc(B(OCCC2CCCCN2)c2ccc(C)c(Cl)c2)cc1Cl (stereo not shown) [Example 248] | 103 | – | – | 0.87 | –
Cc1ccc(B(O)c2ccc(Oc3ccc(B(O)c4ccc(C)c(Cl)c4)cc3)cc2)cc1Cl [Example 251, bis(3-chloro-4-methylphenyl hydroxyborylphenyl)ether] | 121 | – | – | 0.83 | –
NCC(=O)OB(c1ccccc1)c1ccccc1 [Example 254, diphenyl(glycinate-O,N)borane] | 101 | 101 | 0.95 | 0.95 | –
O=C(O)CC1[NH2+][B-](c2ccccc2)(c2ccccc2)OC1=O (stereo not shown) [Example 257] | 103 | 103 | 0.98 | 0.98 | –

Compound | TGase activity remaining (% of DMSO control = 100) (transglutaminase (TGase); [2]) | TGase activity remaining (% of DMSO control = 100) (transglutaminase (TGase); [3]) | x-Fold [1, 4] | x-Fold [1, 5] | other results
CC(C)CC(N)C(=O)OB(c1ccccc1)c1ccccc1 (stereo not shown) [Example 261, diphenyl(leucinate-O,N)borane] | 109 | 109 | 0.89 | 0.89 | –
CC(O)C(N)C(=O)OB(c1ccccc1)c1ccccc1 (stereo not shown) [Example 265, diphenyl(threoninate-O,N)borane] | 112 | 112 | 0.94 | 0.94 | –
NC(=O)CCC(N)C(=O)OB(c1ccccc1)c1ccccc1 (stereo not shown) [Example 276, diphenyl(glutaminate-O,N)borane] | 105 | – | – | 0.8 | TGase activity remaining (% of DMSO control = 100) (transglutaminase (TGase); TGase inhibitory activity value, Table 1, listed as 854): 105; x-Fold ([1]; polyglutamine aggregation inhibitory activity, Table 1, listed as 854): 0.8
O=C(OB(c1ccccc1)c1ccccc1)C1CNCCN1 (stereo not shown) [Example 279, diphenyl(2-piperazinecarboxy)borane] | 103 | 103 | 0.98 | 0.98 | –
NCCC(N)C(=O)OB(c1ccccc1)c1ccccc1 (stereo not shown) [Example 280, diphenyl(2,4-diaminolacetic acid)borane] | 98 | – | – | 0.88 | TGase activity remaining (% of DMSO control = 100) (transglutaminase (TGase); TGase inhibitory activity value, Table 1, listed as 897): 98; x-Fold ([1]; polyglutamine aggregation inhibitory activity, Table 1, listed as 897): 0.88
Cc1ccc(B(OC(=O)c2ccccn2)c2ccc(C)c(Cl)c2)cc1Cl [Example 281, di(3-chloro-4-methylphenyl)-(picolinate-O,N)borane] | 77 | – | – | 0.94 | –
O=C(OB(c1ccc(C(F)(F)F)cc1)c1ccc(C(F)(F)F)cc1)c1ccccn1 [Example 284, di(4-trifluoromethylphenyl) (picolinate-O,N)borane] | 89 | 89 | 1.03 | 1.03 | –
Cc1ccc(B(OC(=O)C(N)CCCNC(N)=O)c2ccc(C)c(Cl)c2)cc1Cl (stereo not shown) [Example 287, di(3-chloro-4-methylphenyl)(citrullinate-O,N)borane] | 146 | 146 | 1.00 | 1.00 | –
Cc1ccc(B(OC(=O)C(N)CCN)c2ccc(C)c(Cl)c2)cc1Cl (stereo not shown) [Example 293, di(3-chloro-4-methylphenyl)(2,4-diaminobutyrate-O,N)borane] | 116 | 116 | 0.91 | 0.91 | –
OB(c1ccc(COCCOc2ccc(B(O)c3cccs3)cc2)cc1)c1cccs1 [Example 296, (4-(2-thiophenehydroxyboryl)phenoxyethyl)(4′-(2-thiophenehydroxyboryl)benzyl)ether] | 97 | 97 | 0.74 | 0.74 | –
OB(c1ccccc1)c1ccccc1B(O)c1ccccc1 [Example 297, 1,2-di(phenylhydroxyboryl)benzene] | 89 | – | – | 0.69 | TGase activity remaining (% of DMSO control = 100) (transglutaminase (TGase); TGase inhibitory activity value, Table 1, listed as 806): 89; x-Fold ([1]; polyglutamine aggregation inhibitory activity, Table 1, listed as 806): 0.69
NCCOB(c1ccccc1)c1ccccc1B(OCCN)c1ccccc1 [Example 298, 1,2-di(phenylaminoethoxyboryl)benzene] | 101 | 101 | 1.01 | 1.01 | –
NC(=O)CCC(N)C(=O)OB(c1ccsc1)c1ccc2sc3ccc(B(OC(=O)C(N)CCC(N)=O)c4ccsc4)cc3c2c1 (stereo not shown) [Example 304, 2,8-di(3-thiophenylglutamine-O,N boryl)dibenzothiophene] | 47 | 47 | 0.90 | 0.90 | –
N#Cc1ccc(B(O)c2ccc(C#N)cc2)cc1 [Example 305, 4,4′-di(cyano-phenyl)borinic acid] | 94 | – | – | 0.98 | TGase activity remaining (% of DMSO control = 100) (transglutaminase (TGase); TGase inhibitory activity value, Table 1, listed as 6095): 94; x-Fold ([1]; polyglutamine aggregation inhibitory activity, Table 1, listed as 6095): 0.98
N#Cc1cccc(B(O)c2cccc(C#N)c2)c1 [Example 306, 3,3′-di(cyano-phenyl)borinic acid] | 90 | 90 | 0.98 | 0.98 | –
COc1ccc(B(O)c2cccc(COCc3cccc(B(O)c4ccc(OC)cc4)c3)c2)cc1 [Example 328, bis(3-(4-methoxyphenylhydroxyboryl)benzyl)ether] | 100 | – | – | 1.04 | –
